Source: patent publication US8362249B2, “CXCR3 receptor antagonists” (Boehringer Ingelheim International GmbH, priority 2009, dated 2013)

The molecules below were run against CXCR3 (Macaca fascicularis, UniProt A0A2K5UV19) (assay: functional cellular assay measuring calcium flux in CXCR3 transfected cells (block of CXCR3/IP-10 interaction)). Settings: IP-10 induced intracellular calcium flux; Cyno-CHO cells stably expressing recombinant CXCR3 and G-alpha-16.
Chain of CXCR3 (A0A2K5UV19 entry or part of it): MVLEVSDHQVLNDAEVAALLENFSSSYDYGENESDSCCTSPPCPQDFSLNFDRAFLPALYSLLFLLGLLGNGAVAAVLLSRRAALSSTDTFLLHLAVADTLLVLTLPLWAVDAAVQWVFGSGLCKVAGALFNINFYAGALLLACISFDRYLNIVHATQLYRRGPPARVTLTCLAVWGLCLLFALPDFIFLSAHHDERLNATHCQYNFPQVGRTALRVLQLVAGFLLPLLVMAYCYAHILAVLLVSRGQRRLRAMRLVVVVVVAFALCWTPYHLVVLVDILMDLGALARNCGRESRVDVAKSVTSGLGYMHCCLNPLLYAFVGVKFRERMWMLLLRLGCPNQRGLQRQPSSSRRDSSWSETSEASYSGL
Format: cell-based
Method: Compounds are assessed for the ability to block the interaction of CXCR3 and IP-10 in a functional cellular assay measuring calcium flux in CXCR3 transfected cells.
Cyno-CHO cells, stably expressing recombinant CXCR3 and G-alpha-16 are grown in F12 medium (Mediatech #45000-360) supplemented with 10% (V/V) FBS (Mediatech #35-01500), 1% Geneticin (Invitrogen #10131-027) and 0.2% Zeocin (Invitrogen #R250-05). The cells are spun down and re-suspended in growth media to a concentration of 4.8 E5 cells/mL. 25 microL of cell suspension is added to each well of a BD-384-well TC treated plate, providing 12,000 cells/well. The plate is incubated at 37° C./5% CO2 overnight. On the day of the assay, the plates are removed, the media is flicked out and 25 microL of Ca-4 dye in assay buffer (HBSS, 10 mM HEPES ph 7.4), containing 2 mM probenacid is added to each well. The cell assay plates are then incubated at 37° C./5% CO2 for one hour.
Test compounds are dissolved in DMSO and diluted to 1.045 mM in DMSO. Just prior to assay, 2.75 microL of appropriately diluted test compound are added to each well of a 384 well plate containing 45 microL of HBSS buffer. After mixing, 5 microL of diluted compound are added to each well of the cell assay plate for a final assay concentration of 10 microM. The plate is incubated at room temperature for 15 min. 10 microL of IP-10 stock solution in HBSS (4× EC80 concentration) are added to each well of the cell assay plate except those cells reserved as blank wells containing buffer only. Intracellular calcium flux is recorded on the HAMAMTSU FDSS6000, using excitation at 480 nm and emission at 540 nm. Data are analyzed using Activity Base software.
In general, the preferred potency range (IC50) of compounds in the above assay is between 1 nM to 3 μM, and the most preferred potency range is 1 nM to 20 nM.
Molecule `Cc1nn(CC(=O)N2CCN(c3ncc(Cl)cc3NC(=O)c3cccc(C(F)(F)F)c3)CC2)c(C)c1Cl` has an IC50 of 7.2 nM.
`Cc1cc(C(=O)NCC(=O)N2CCN(c3ccccc3C(=O)Nc3cccnc3)CC2)nn1C` [1,5-Dimethyl-1H-pyrazole-3-carboxylic acid (2-oxo-2-{4-[2-(pyridin-3-ylcarbamoyl)-phenyl]-piperazin-1-yl}-ethyl)-amide] showed an IC50 of 20 nM.
Molecule `Cn1cccc1C(=O)NCC(=O)N1CCN(c2ccccc2C(=O)Nc2cccnc2)CC1` [1-Methyl-1H-pyrrole-2-carboxylic acid (2-oxo-2-{4-[2-(pyridin-3-ylcarbamoyl)-phenyl]-piperazin-1-yl}-ethyl)-amide] has an IC50 of 12 nM.
`Cn1cccc1C(=O)NCC(=O)N1CCN(c2ccccc2C(=O)Nc2ccncc2)CC1` [1-Methyl-1H-pyrrole-2-carboxylic acid (2-oxo-2-{4-[2-(pyridin-4-ylcarbamoyl)-phenyl]-piperazin-1-yl}-ethyl)-amide] gave an IC50 of 4.2 nM.
`CN(CC(=O)N1CCN(c2ccccc2C(=O)Nc2ccncc2)CC1)C(=O)c1cccn1C` [1-Methyl-1H-pyrrole-2-carboxylic acid methyl-(2-oxo-2-{4-[2-(pyridin-4-ylcarbamoyl)-phenyl]-piperazin-1-yl}-ethyl)-amide] gave an IC50 of 6.5 nM.
For `COc1cccc(C(=O)NCC(=O)N2CCN(c3ccccc3C(=O)Nc3cccnc3)CC2)c1OC` [2,3-Dimethoxy-N-(2-oxo-2-{4-[2-(pyridin-3-ylcarbamoyl)-phenyl]-piperazin-1-yl}-ethyl)-benzamide], the IC50 was 12.5 nM.
Work on `COc1cccc(C(=O)NCC(=O)N2CCN(c3ccccc3C(=O)Nc3ccncc3)CC2)c1OC` [2,3-Dimethoxy-N-(2-oxo-2-{4-[2-(pyridin-4-ylcarbamoyl)-phenyl]-piperazin-1-yl}-ethyl)-benzamide] yielded an IC50 of 3.7 nM.
`COc1cccc(C(=O)N(C)CC(=O)N2CCN(c3ccccc3C(=O)Nc3ccncc3)CC2)c1OC` [2,3-Dimethoxy-N-methyl-N-(2-oxo-2-{4-[2-(pyridin-4-ylcarbamoyl)-phenyl]-piperazin-1-yl}-ethyl)-benzamide] showed an IC50 of 15 nM.
In the case of `Cc1nc(C)c(C(=O)NCC(=O)N2CCN(c3ccccc3C(=O)Nc3cccnc3)CC2)s1` [2,4-Dimethyl-thiazole-5-carboxylic acid (2-oxo-2-{4-[2-(pyridin-3-ylcarbamoyl)-phenyl]-piperazin-1-yl}-ethyl)-amide], the IC50 is reported as 13.9 nM.
`Cc1cc(C(=O)NCC(=O)N2CCN(c3ccccc3C(=O)Nc3ccncc3)CC2)n(C)n1` [2,5-Dimethyl-2H-pyrazole-3-carboxylic acid (2-oxo-2-{4-[2-(pyridin-4-ylcarbamoyl)-phenyl]-piperazin-1-yl}-ethyl)-amide] was tested, and the IC50 was 5.4 nM.
Molecule `CCn1nc(C)cc1C(=O)NCC(=O)N1CCN(c2ccccc2C(=O)Nc2cccnc2)CC1` [2-Ethyl-5-methyl-2H-pyrazole-3-carboxylic acid (2-oxo-2-{4-[2-(pyridin-3-ylcarbamoyl)-phenyl]-piperazin-1-yl}-ethyl)-amide] has an IC50 of 18 nM.
`O=C(Nc1ccncc1)c1ccccc1N1CCN(C(=O)Cc2n[nH]c3ccccc23)CC1` [2-[4-(2-1H-Indazol-3-yl-acetyl)-piperazin-1-yl]-N-pyridin-4-yl-benzamide] gave an IC50 of 7.2 nM.
`CS(=O)(=O)c1ccc(NC(=O)c2ccccc2N2CCN(C(=O)CN3CCc4cccnc43)CC2)cc1` [2-[4-(2-2,3-Dihydro-pyrrolo[2,3-b]pyridin-1-yl-acetyl)-piperazin-1-yl]-N-(4-methanesulfonyl-phenyl)-benzamide] showed an IC50 of 9.7 nM.
With `O=C(Nc1cccnc1)c1ccccc1N1CCN(C(=O)CN2CCc3cccnc32)CC1` [2-[4-(2-2,3-Dihydro-pyrrolo[2,3-b]pyridin-1-yl-acetyl)-piperazin-1-yl]-N-pyridin-3-yl-benzamide] the IC50 was 10 nM.
With `O=C(Nc1ccncc1)c1ccccc1N1CCN(C(=O)CN2CCc3cccnc32)CC1` [2-[4-(2-2,3-Dihydro-pyrrolo[2,3-b]pyridin-1-yl-acetyl)-piperazin-1-yl]-N-pyridin-4-yl-benzamide] the IC50 was 9 nM.
Work on `O=C(Nc1ccncc1)c1ccccc1N1CCN(C(=O)Cc2noc3ccccc23)CC1` [2-[4-(2-Benzo[d]isoxazol-3-yl-acetyl)-piperazin-1-yl]-N-pyridin-4-yl-benzamide] yielded an IC50 of 6.6 nM.
With `O=C(Nc1ccncc1)c1ccccc1N1CCN(C(=O)Cc2coc3ccccc23)CC1` [2-[4-(2-Benzofuran-3-yl-acetyl)-piperazin-1-yl]-N-pyridin-4-yl-benzamide] the IC50 was 10.3 nM.
`O=C(NCC(=O)N1CCN(c2ccccc2C(=O)Nc2cccnc2)CC1)c1ccccc1` [2-[4-(2-Benzoylamino-acetyl)-piperazin-1-yl]-N-pyridin-3-yl-benzamide] showed an IC50 of 7.6 nM.
`O=C(Nc1ccncc1)c1ccccc1N1CCN(C(=O)Cc2cn3ccccc3n2)CC1` [2-[4-(2-Imidazo[1,2-a]pyridin-2-yl-acetyl)-piperazin-1-yl]-N-pyridin-4-yl-benzamide] showed an IC50 of 16 nM.
For `O=C(Nc1ccncc1)c1ccccc1N1CCN(C(=O)CNc2ccccc2)CC1` [2-[4-(2-Phenylamino-acetyl)-piperazin-1-yl]-N-pyridin-4-yl-benzamide], the IC50 was 19 nM.
With `O=C(Nc1ccc(C(F)(F)F)nc1)c1ccccc1N1CCN(C(=O)Cn2ccc3cccnc32)CC1` [2-[4-(2-Pyrrolo[2,3-b]pyridin-1-yl-acetyl)-piperazin-1-yl]-N-(6-trifluoromethyl-pyridin-3-yl)-benzamide] the IC50 was 6.9 nM.
`O=C(Nc1cnc2ccccc2c1)c1ccccc1N1CCN(C(=O)Cn2ccc3cccnc32)CC1` [2-[4-(2-Pyrrolo[2,3-b]pyridin-1-yl-acetyl)-piperazin-1-yl]-N-quinolin-3-yl-benzamide] showed an IC50 of 8.4 nM.
For `O=C(Nc1ccncc1)c1ccccc1N1CCN(C(=O)CN2C(=O)c3ccccc3C2=O)CC1` [2-{4-[2-(1,3-Dioxo-1,3-dihydro-isoindol-2-yl)-acetyl]-piperazin-1-yl}-N-pyridin-4-yl-benzamide], the IC50 was 6.1 nM.
For `O=C(Nc1ccncc1)c1ccccc1N1CCN(C(=O)CN2Cc3ccccc3C2=O)CC1` [2-{4-[2-(1-Oxo-1,3-dihydro-isoindol-2-yl)-acetyl]-piperazin-1-yl}-N-pyridin-4-yl-benzamide], the IC50 was 5.1 nM.
With `O=C(Nc1ccncc1)c1ccccc1N1CCN(C(=O)Cn2ncc3ccccc3c2=O)CC1` [2-{4-[2-(1-Oxo-1H-phthalazin-2-yl)-acetyl]-piperazin-1-yl}-N-pyridin-4-yl-benzamide] the IC50 was 6.1 nM.
In the case of `Cc1cn(CC(=O)N2CCN(c3ccccc3C(=O)Nc3ccccc3)CC2)c(C)n1` [2-{4-[2-(2,4-Dimethyl-imidazol-1-yl)-acetyl]-piperazin-1-yl}-N-phenyl-benzamide], the IC50 is reported as 5 nM.
Work on `Cc1nc(C)c(CC(=O)N2CCN(c3ccccc3C(=O)Nc3ccncc3)CC2)s1` [2-{4-[2-(2,4-Dimethyl-thiazol-5-yl)-acetyl]-piperazin-1-yl}-N-pyridin-4-yl-benzamide] yielded an IC50 of 13 nM.
Work on `Cc1nc(CC(=O)N2CCN(c3ccccc3C(=O)Nc3ccncc3)CC2)c(C)s1` [2-{4-[2-(2,5-Dimethyl-thiazol-4-yl)-acetyl]-piperazin-1-yl}-N-pyridin-4-yl-benzamide] yielded an IC50 of 7 nM.
For `Cc1nc2ccccc2c(=O)n1CC(=O)N1CCN(c2ccccc2C(=O)Nc2ccncc2)CC1` [2-{4-[2-(2-Methyl-4-oxo-4H-quinazolin-3-yl)-acetyl]-piperazin-1-yl}-N-pyridin-4-yl-benzamide], the IC50 was 8.6 nM.
Molecule `O=C(Nc1ccnc(C(F)(F)F)c1)c1ccccc1N1CCN(C(=O)CN2CCCCC2=O)CC1` [2-{4-[2-(2-Oxo-piperidin-1-yl)-acetyl]-piperazin-1-yl}-N-(2-trifluoromethyl-pyridin-4-yl)-benzamide] has an IC50 of 11 nM.
`O=C(Nc1ccc(C(F)(F)F)nc1)c1ccccc1N1CCN(C(=O)CN2CCCCC2=O)CC1` [2-{4-[2-(2-Oxo-piperidin-1-yl)-acetyl]-piperazin-1-yl}-N-(6-trifluoromethyl-pyridin-3-yl)-benzamide] was tested, and the IC50 was 3 nM.
Molecule `O=C(Nc1ccnc(OCC(F)(F)F)c1)c1ccccc1N1CCN(C(=O)CN2CCCCC2=O)CC1` [2-{4-[2-(2-Oxo-piperidin-1-yl)-acetyl]-piperazin-1-yl}-N-[2-(2,2,2-trifluoro-ethoxy)-pyridin-4-yl]-benzamide] has an IC50 of 7.8 nM.
`O=C(Nc1ccncc1)c1ccccc1N1CCN(C(=O)CN2CCCCC2=O)CC1` [2-{4-[2-(2-Oxo-piperidin-1-yl)-acetyl]-piperazin-1-yl}-N-pyridin-4-yl-benzamide] showed an IC50 of 7.4 nM.
`Cc1nn(-c2ccccc2)c(C)c1CC(=O)N1CCN(c2ccccc2C(=O)Nc2ccncc2)CC1` [2-{4-[2-(3,5-Dimethyl-1-phenyl-1H-pyrazol-4-yl)-acetyl]-piperazin-1-yl}-N-pyridin-4-yl-benzamide] was tested, and the IC50 was 16 nM.
Work on `COc1cc(NC(=O)c2cc(F)ccc2N2CCN(C(=O)Cn3nc(C)cc3C)CC2)ccn1` [2-{4-[2-(3,5-Dimethyl-pyrazol-1-yl)-acetyl]-piperazin-1-yl}-5-fluoro-N-(2-methoxy-pyridin-4-yl)-benzamide] yielded an IC50 of 9.7 nM.
